This note sets out measurements from patent US8901316B2, “Process for preparing aminoadamantyl carbamate derivatives” (Shionogi & Co., Ltd., priority 2010, dated 2014).

This data set can be described thus: stability to temperature and humidity changes (storage/handling). It is filed as physicochemical. The conditions noted are these: solid; storage without desiccant agent or without being sealed.

Regarding “aminoadamantane carbamate hydrochloride dihydrate [III-2]”, the “stability to temperature and humidity changes” value is “stable to temperature and humidity changes”.
